From patent US20240327356A1, “PYRIMIDINE BASED RAS MODULATORS AND USES THEREOF” (QUANTA THERAPEUTICS, INC., priority 2021, published 2024)

Tests used:
[1] = test system: pERK (ERK phospho-T202/Y204) in SW-480 cells; assay: pERK inhibition in SW-480 cell line (HTRF); type: cell-based; conditions: Homo sapiens, SW480, 1 hour incubation with compound
Experimental: SW-480 cells were cultured in Leibovitz's L15 (Gibco Cat. No. 11415064), supplemented with 10% fetal bovine serum (Gibco, Cat. No. 1993708), and 1% penicillin and streptomycin. Cells were grown at 37° C., under atmospheric conditions without additional CO2. Cells were seeded into a 96-well tissue-culture treated plate (Greiner, Cat. No. 655180) at a density of 30,000 cell per well, and allowed to adhere for 16 hours before the media was removed, and cells were treated with compounds diluted into culture media at the indicated concentrations. After 1 hour of incubation in the presence of compound, cells were harvested to measure pERK levels using the lysis buffer supplied with the Homogenous Time Resolved Fluorescence pERK kit (HTRF, Cisbio Advance ERK phospho-T202/Y204, Cat. No. 64AERPEG). Lysates were transferred to a 384-well low-volume white plate (PerkinElmer, Cat. No. 6008280) and then treated with the detection reagents supplied by the HTRF kit, according to the “2-plate” protocol supplied by the manufacturer, and incubated for 4-hours at ambient temperature in darkness. Assay plates were read at two fluorescent wavelengths (665 nm and 620 nm) using an Envision plate reader (Perkin Elmer) and data was processed and fitted to a 4-parameter logistic model using Graphpad Prism 8.0 to calculate IC50 values.

[2] = test system: Phospho-ERK (Thr202/Tyr204) in MiaPaCa-2 cells; assay: pERK inhibition in MiaPaca-2 cell line (HTRF); type: cell-based; conditions: Homo sapiens, MIA PaCa-2, 1 hour incubation with compound
Experimental: MiaPaCa-2 cells (ATCC CRL-1420) were cultured in high glucose DMEM (Gibco 11965092) containing 10% fetal bovine serum (Gibco 1993708) and 1× Penicillin/Streptomycin, at 37° C. in a humid atmosphere of 5% CO2 in the air. Cells were plated in tissue-culture treated 96-well plates at a density of 10,000 cells/well and allowed to attach for 16 hours. The medium was then removed, and diluted compounds were added in a final concentration of 0.5% DMSO. After 1 hour of incubation, cells were lysed by the lysis buffer supplied with the Phospho-ERK (Thr202/Tyr204) cellular HTRF kit (Cisbio 64ERKPEH) and transferred to a 384-well low-volume white plate (PerkinElmer 6008280). The cell lysates were treated with the detection reagents supplied with the HTRF kit for 4 hours at ambient temperature in darkness. Two fluorescence intensities at the wavelengths (665 and 620 nm) were measured by the Envision plate reader (Perkin Elmer), and the data were processed and fitted to a 4-parameter logistic model for IC50 calculation (GraphPad Prism 9).

[3] = target: KRAS^G12D-FMe.RAF1^RBDCRD complex (Homo sapiens, UniProt P01116, G12D); assay: SHG assay: binding to bilayer-tethered KRAS G12D/RAF1 complex; conditions: GppNHp-loaded complex on PS bilayer; compound 0.027-40 μM, monitored over 60 min
Experimental: Compounds suspected to carry intrinsic SHG activity were tested in the presence of an unlabeled KRAS^G12D-FMe.RAF1^RBDCRD complex to monitor binding. PS bilayer was prepared from PS-enriched small unilamellar vesicles (SUVs) purchased from Biodesy, Inc. The concentrated SUVs were diluted in TBS buffer containing 5 mM CaCl2 and incubated on a glass-bottom 384-well Biodesy Delta™ assay plate to allow bilayer formation. Equimolar amounts of GppNHp-loaded KRAS^G12D-FMe and RAF1^RBDCRD were mixed and incubated together on PS bilayer overnight at 4° C. The following day, untethered protein was removed by washing with assay buffer (20 mM Hepes, pH 7.4, […], 1 mM TCEP, 5 μM GppNHp). The SHG signal produced by bilayer-tethered complex was ready using the Biodesy Delta™ platform where each well was pulsed with an 800 nm laser and the resulting second harmonic signal intensity at 400 nm was collected. Compounds were diluted into the same assay buffer and applied to the complex at a final concentration range spanning 0.027 μM-40 μM and the SHG intensity of each well was monitored at 5 minute intervals over a 60 minute time period.

SMILES	IC50 [1] [µM]	IC50 [2] [µM]	EC50 [3] [µM]
Cc1ccc(-c2ncc(CNC(=O)C3(CO)CC3)c(N3CCC(CN)C3)n2)cc1Cl (stereo not shown) [Compound 105]	1 to 10	0.1 to 1	10 to 50
N#CC1(C(=O)NCc2cnc(-c3ccc(Cl)c(C(F)(F)F)c3)nc2N2CCC(CN)C2)CC1 (stereo not shown) [Compound 5, N-[[4-[3-(aminomethyl)pyrrolidin-1-yl]-2-[4-chloro-3-(trifluoromethyl)phenyl]pyrimidin-5-yl]methyl]-1-cyano-cyclopropanecarboxamide]	1 to 10	1 to 10	1 to 10
Cc1ccc(-c2ncc(CNC(=O)C3(C#N)CC3)c(N3CC[C@H](CN)C3)n2)cc1Cl [Compound 73]	0.1 to 1	0.1 to 1	1 to 10
Cc1ccc(-c2ncc(CNC(=O)C3(F)CC3)c(N3CCC(CN)C3)n2)cc1Cl (stereo not shown) [Compound 59]	1 to 10	1 to 10	1 to 10
NC[C@H]1CCCN1c1nc(-c2ccc(Cl)c(C(F)(F)F)c2)ncc1C1=CCNC1 [Compound 33]		1 to 10	1 to 10
C=C(C)C(=O)NCc1cnc(-c2ccc(C)c(Cl)c2)nc1N1CCC(CN)C1 (stereo not shown) [Compound 88]		1 to 10	1 to 10
Cc1ccc(-c2ncc(CNC(=O)C3(C#N)CC3)c(N3CCC(F)(CN)C3)n2)cc1Cl (stereo not shown) [Compound 63]		0.1 to 1	1 to 10
Cc1ccc(-c2ncc(NC(=O)C3CC3)c(N3CCC(CN)C3)n2)cc1Cl (stereo not shown) [Compound 113]		1 to 10	10 to 50
Cc1ccc(-c2ncc(CNC(=O)C3(F)CC3)c(N3C[C@@H]4[C@@H](N)[C@@H]4C3)n2)cc1Cl [Compound 84]	1 to 10	1 to 10	1 to 10
N#CC1(C(=O)N2CC=C(c3cnc(-c4ccc(Cl)c(C(F)(F)F)c4)nc3N3CCC(CN)C3)C2)CC1 (stereo not shown) [Compound 29]		1 to 10	1 to 10
Cc1ccc(-c2ncc(CNC(=O)C3(C#N)CC3)c(N3CCC(CN)C3)n2)cc1Cl (stereo not shown) [Compound 41]	1 to 10	0.1 to 1	1 to 10
Cc1ccc(-c2ncc(C3=CCNC3)c(N3CCC(CN)C3)n2)cc1C(F)(F)F (stereo not shown) [Compound 32]		1 to 10	0.1 to 1
Cc1ccc(-c2ncc(CN3CCNC3=O)c(N3CCC(CN)C3)n2)cc1Cl (stereo not shown) [Compound 119]		1 to 10	1 to 10
Cc1ccc(-c2ncc(CN3CCOC3=O)c(N3CCC(CN)C3)n2)cc1Cl (stereo not shown) [Compound 121, 3-[[4-[3-(aminomethyl)pyrrolidin-1-yl]-2-(3-chloro-4-methyl-phenyl)pyrimidin-5-yl]methyl]oxazolidin-2-one]		1 to 10	1 to 10
Cc1ccc(-c2ncc(CNC(=O)C3(F)CC3)c(N3CCN(C)CC3)n2)cc1Cl [Compound 83]	10 to 50	1 to 10	10 to 50
Cc1ccc(-c2ncc(CNC(=O)C3(C#N)CC3)c(N3CCC[C@H]3CN)n2)cc1Cl [Compound 68]		1 to 10	10 to 50
N#CC1(C(=O)NCc2cnc(-c3ccc4c(c3)CCC4)nc2N2CCC(CN)C2)CC1 (stereo not shown) [Compound 104]	1 to 10	0.1 to 1	10 to 50
COC(=O)NCc1cnc(-c2ccc(C)c(Cl)c2)nc1N1CCC(CN)C1 (stereo not shown) [Compound 60]		1 to 10	1 to 10
Cc1ccc(-c2ncc(CN3CCN(C)C3=O)c(N3CCC(CN)C3)n2)cc1Cl (stereo not shown) [Compound 120]		1 to 10	10 to 50

SMILES	IC50 [1] [µM]	IC50 [2] [µM]	EC50 [3] [µM]
NCc1cnc(-c2ccc(Cl)c(C(F)(F)F)c2)nc1N1CC[C@@H](CN)C1 [Compound 1]		10 to 50	1 to 10
Cc1ccc(-c2ncc(CNC(=O)C3(F)CC3)c(N3CC(CN)C3)n2)cc1Cl [Compound 101]		1 to 10	10 to 50
NCC1CCN(c2nc(-c3ccc(C(F)(F)F)cc3F)ncc2CNC(=O)Nc2ccccc2)C1 (stereo not shown) [Compound 19, 1-[[4-[3-(aminomethyl)pyrrolidin-1-yl]-2-[2-fluoro-4-(trifluoromethyl)phenyl]pyrimidin-5-yl]methyl]-3-phenyl-urea]		1 to 10	1 to 10
Cc1ccc(-c2ncc(CNC(=O)C3(C#N)CC3)c(N3CC[C@H](N)C3)n2)cc1Cl [Compound 65]		0.1 to 1	1 to 10
N#CC1(C(=O)NCc2cnc(-c3ccc(Cl)c(C(F)(F)F)c3)nc2OCCN)CC1 [Compound 46]		1 to 10	1 to 10
N#CC1(C(=O)NCc2cnc(-c3ccc(Cl)c(C(F)(F)F)c3)nc2N2CCOC(CN)C2)CC1 (stereo not shown) [Compound 51]		1 to 10	1 to 10
NCC1CCN(c2nc(-c3ccc(Cl)c(C(F)(F)F)c3)ncc2CNC(=O)C2(F)CC2)C1 (stereo not shown) [Compound 7]		1 to 10	1 to 10
NCC1CCN(c2nc(-c3ccc(Cl)cc3NC(=O)C3(F)CC3)ncc2C2=CCNC2)C1 (stereo not shown) [Compound 23]		1 to 10	1 to 10
N[C@@H]1CN(c2nc(-c3ccc(Cl)cc3NC(=O)C3(F)CC3)ncc2C2=CCNC2)C[C@H]1O [Compound 44]		1 to 10	1 to 10
N#CC1(C(=O)NCc2cnc(-c3ccc(Cl)c(C(F)(F)F)c3)nc2OC2CC(N)C2)CC1 (stereo not shown) [Compound 50]		1 to 10	1 to 10
N#CC1(C(=O)NCc2cnc(-c3ccc(C(F)(F)F)cc3F)nc2N2CCC(CN)C2)CC1 (stereo not shown) [Compound 28]		1 to 10	10 to 50
Cc1ccc(-c2ncc(CNC(=O)C3(O)CC3)c(N3CCC(CN)C3)n2)cc1Cl (stereo not shown) [Compound 96]		1 to 10	1 to 10
Cc1ccc(-c2ncc(CNS(=O)(=O)C3CC3)c(N3CCC(CN)C3)n2)cc1Cl (stereo not shown) [Compound 82]		1 to 10	1 to 10
Cc1ccc(-c2ncc(CNC(=O)C3(F)CC3)c(N3CC[C@H](CN)C3)n2)cc1Cl [Compound 93]		1 to 10	1 to 10
CCOC(=O)NCc1cnc(-c2ccc(C)c(Cl)c2)nc1N1CCC(CN)C1 (stereo not shown) [Compound 118]		1 to 10	10 to 50
Cc1ccc(-c2ncc(CNC(=O)C3(F)CC3)c(N3CCC(N)CC3)n2)cc1Cl [Compound 92]		1 to 10	1 to 10
N#CC1(C(=O)NCc2cnc(-c3ccc(Cl)c(C(F)(F)F)c3)nc2N2C[C@@H](N)[C@H](O)C2)CC1 [Compound 37]		1 to 10	10 to 50
Cc1ccc(-c2ncc(CNC(=O)C3(F)CC3)c(N3CC[C@@H](CN)C3)n2)cc1Cl [Compound 72]	1 to 10	1 to 10	
